Reference: EP4660184A1 (Eurofarma Laboratórios S.A., priority 2023, dated 2024)

How the values were obtained:
[1] = target: T1, human sodium channels Nav 1.8 (Homo sapiens, UniProt Q9Y5Y9); test: Automated whole-cell voltage-clamp (ScreenPatch 384P) sodium current block, Nav 1.8; format: cell-based; details: CHO cells stably expressing human Nav 1.8; inactivation step -40 mV for 8 seconds, test step 10 mV (TP1A); exposure at least five minutes; room temperature; mean if two or more assays; read-out: Nav1.8 IC50
T1 construct: expressed in transfected cells
T1 sequence (Q9Y5Y9 whole entry): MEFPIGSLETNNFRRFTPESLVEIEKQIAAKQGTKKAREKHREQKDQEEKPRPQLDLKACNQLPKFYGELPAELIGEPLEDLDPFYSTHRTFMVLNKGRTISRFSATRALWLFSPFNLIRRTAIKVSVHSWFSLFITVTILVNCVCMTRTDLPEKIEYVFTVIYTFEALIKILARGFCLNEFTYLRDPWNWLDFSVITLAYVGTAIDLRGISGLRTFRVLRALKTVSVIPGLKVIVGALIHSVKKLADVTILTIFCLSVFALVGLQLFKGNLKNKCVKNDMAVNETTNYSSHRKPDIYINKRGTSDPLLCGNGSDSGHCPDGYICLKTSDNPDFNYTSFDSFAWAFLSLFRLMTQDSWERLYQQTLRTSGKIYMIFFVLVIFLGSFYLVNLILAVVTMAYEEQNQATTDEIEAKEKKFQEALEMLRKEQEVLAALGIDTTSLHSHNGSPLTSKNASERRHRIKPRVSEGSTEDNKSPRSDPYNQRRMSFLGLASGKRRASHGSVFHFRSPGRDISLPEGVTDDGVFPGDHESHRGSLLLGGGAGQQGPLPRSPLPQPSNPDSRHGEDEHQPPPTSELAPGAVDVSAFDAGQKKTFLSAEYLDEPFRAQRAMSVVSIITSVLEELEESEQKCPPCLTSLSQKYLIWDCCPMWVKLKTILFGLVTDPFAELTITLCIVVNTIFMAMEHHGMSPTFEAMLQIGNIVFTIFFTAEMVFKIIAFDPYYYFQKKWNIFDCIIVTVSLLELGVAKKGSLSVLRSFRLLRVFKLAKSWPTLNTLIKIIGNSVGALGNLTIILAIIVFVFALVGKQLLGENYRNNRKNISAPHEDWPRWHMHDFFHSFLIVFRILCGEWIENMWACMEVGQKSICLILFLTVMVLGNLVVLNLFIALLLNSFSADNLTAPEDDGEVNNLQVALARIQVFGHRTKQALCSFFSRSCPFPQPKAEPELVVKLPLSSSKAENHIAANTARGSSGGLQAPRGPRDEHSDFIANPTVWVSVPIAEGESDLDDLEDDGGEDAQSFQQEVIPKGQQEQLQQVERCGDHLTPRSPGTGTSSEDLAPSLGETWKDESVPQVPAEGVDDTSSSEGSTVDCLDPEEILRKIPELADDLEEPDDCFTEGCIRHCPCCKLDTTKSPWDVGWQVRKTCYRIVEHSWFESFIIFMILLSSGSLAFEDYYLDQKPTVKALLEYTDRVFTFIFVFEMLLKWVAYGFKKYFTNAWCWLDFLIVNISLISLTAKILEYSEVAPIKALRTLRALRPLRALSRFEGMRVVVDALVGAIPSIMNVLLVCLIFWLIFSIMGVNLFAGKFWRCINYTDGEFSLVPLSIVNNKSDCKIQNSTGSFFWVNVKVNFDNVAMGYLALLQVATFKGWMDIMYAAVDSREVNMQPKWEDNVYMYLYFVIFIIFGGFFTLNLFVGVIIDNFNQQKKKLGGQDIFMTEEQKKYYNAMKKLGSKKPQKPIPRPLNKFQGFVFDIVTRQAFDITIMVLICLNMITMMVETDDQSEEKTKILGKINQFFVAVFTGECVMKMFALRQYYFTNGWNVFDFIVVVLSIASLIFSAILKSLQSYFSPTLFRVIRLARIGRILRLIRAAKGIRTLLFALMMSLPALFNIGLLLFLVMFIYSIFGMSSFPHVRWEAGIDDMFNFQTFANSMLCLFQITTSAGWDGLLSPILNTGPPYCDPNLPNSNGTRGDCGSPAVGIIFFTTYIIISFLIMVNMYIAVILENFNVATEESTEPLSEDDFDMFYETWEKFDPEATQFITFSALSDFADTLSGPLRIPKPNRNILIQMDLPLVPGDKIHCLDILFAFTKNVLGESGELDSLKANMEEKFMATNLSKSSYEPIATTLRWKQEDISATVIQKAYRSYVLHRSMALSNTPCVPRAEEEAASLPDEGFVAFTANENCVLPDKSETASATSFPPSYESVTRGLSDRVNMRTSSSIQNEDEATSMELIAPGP
Protocol: (§1) Biological assays were performed on Chinese hamster ovary (CHO) cells that express human sodium channels Nav 1.8 or Nav 1.7 in a stable manner.
(§2) The experimental protocol voltage-clamp using the whole cell configuration was established on the automated ScreenPatch® 384P platform (SP384PE, Nanion Technologies, Livingston, NJ) and the results were recorded with a Nanion 384-well Patch Clamp chip (NPC) (Nanion Technologies, Livingston, NJ).
(§3) Formula I compounds were diluted in eight concentrations in the extracellular solution composed of saline saline solution, buffered with HEPES (mM): NaCl, 137; KCl, 4; CaCl2, 3,8; MgCl2, 1; HEPES, 10; Glucose, 10; pH 7.4. The […], 50; CsF, 90; MgCl2, 5; EGTA, 5; HEPES, 10; pH 7.2. The duration of exposure of each compound with cells expressing Nav 1.7 or Nav 1.8 was at least five minutes and the assays were performed at room temperature.
(§4) The measurements of the sodium currents of Nav 1.8 and Nav 1.7 were obtained using the voltage protocol described below.
(§5) A holding voltage of -100 mV was established followed by an inactivation voltage step at -40 mV for 8 seconds, followed by a step of -100 mV for 20 ms, followed by a 20 ms step for 10 mV for Nav 1.8 or 0 mV for Nav 1.7 (TP1A) before returning to the holding voltage of -100 mV.
(§6) The protocol was repeated at a frequency of 0.05 Hz and the amplitude of the current was quantified throughout the recording of the TP1A phase. The variation in the amplitude of the peak current was evaluated according to the formula described below, after exposing the cells expressing the channels to each concentration of the different compounds: % Block = (1−(ITP1A,molecule/ITP1A,basal)×100%, [formula] wherein ITP1A,basal and ITP1A,molecule represent the peaks of sodium current input into TP1A before exposure to the compound and in the presence of the compound, respectively.
(§7) Data were obtained by nonlinear regression (nonlinear least squares) with XLfit for Excel (Microsoft, Redmond, WA).
(§8) The compounds were tested in at least one assay to obtain the value of CI50. For compounds that were tested in two or more assays, the results are described as the mean of the CI50 values.

[2] = target: T2, human sodium channels Nav 1.7 (Homo sapiens, UniProt Q15858); test: Automated whole-cell voltage-clamp (ScreenPatch 384P) sodium current block, Nav 1.7; format: cell-based; details: CHO cells stably expressing human Nav 1.7; inactivation step -40 mV for 8 seconds, test step 0 mV (TP1A); exposure at least five minutes; room temperature; mean if two or more assays; read-out: Nav1.7 IC50
T2 construct: expressed in transfected cells
T2 sequence (Q15858 whole entry): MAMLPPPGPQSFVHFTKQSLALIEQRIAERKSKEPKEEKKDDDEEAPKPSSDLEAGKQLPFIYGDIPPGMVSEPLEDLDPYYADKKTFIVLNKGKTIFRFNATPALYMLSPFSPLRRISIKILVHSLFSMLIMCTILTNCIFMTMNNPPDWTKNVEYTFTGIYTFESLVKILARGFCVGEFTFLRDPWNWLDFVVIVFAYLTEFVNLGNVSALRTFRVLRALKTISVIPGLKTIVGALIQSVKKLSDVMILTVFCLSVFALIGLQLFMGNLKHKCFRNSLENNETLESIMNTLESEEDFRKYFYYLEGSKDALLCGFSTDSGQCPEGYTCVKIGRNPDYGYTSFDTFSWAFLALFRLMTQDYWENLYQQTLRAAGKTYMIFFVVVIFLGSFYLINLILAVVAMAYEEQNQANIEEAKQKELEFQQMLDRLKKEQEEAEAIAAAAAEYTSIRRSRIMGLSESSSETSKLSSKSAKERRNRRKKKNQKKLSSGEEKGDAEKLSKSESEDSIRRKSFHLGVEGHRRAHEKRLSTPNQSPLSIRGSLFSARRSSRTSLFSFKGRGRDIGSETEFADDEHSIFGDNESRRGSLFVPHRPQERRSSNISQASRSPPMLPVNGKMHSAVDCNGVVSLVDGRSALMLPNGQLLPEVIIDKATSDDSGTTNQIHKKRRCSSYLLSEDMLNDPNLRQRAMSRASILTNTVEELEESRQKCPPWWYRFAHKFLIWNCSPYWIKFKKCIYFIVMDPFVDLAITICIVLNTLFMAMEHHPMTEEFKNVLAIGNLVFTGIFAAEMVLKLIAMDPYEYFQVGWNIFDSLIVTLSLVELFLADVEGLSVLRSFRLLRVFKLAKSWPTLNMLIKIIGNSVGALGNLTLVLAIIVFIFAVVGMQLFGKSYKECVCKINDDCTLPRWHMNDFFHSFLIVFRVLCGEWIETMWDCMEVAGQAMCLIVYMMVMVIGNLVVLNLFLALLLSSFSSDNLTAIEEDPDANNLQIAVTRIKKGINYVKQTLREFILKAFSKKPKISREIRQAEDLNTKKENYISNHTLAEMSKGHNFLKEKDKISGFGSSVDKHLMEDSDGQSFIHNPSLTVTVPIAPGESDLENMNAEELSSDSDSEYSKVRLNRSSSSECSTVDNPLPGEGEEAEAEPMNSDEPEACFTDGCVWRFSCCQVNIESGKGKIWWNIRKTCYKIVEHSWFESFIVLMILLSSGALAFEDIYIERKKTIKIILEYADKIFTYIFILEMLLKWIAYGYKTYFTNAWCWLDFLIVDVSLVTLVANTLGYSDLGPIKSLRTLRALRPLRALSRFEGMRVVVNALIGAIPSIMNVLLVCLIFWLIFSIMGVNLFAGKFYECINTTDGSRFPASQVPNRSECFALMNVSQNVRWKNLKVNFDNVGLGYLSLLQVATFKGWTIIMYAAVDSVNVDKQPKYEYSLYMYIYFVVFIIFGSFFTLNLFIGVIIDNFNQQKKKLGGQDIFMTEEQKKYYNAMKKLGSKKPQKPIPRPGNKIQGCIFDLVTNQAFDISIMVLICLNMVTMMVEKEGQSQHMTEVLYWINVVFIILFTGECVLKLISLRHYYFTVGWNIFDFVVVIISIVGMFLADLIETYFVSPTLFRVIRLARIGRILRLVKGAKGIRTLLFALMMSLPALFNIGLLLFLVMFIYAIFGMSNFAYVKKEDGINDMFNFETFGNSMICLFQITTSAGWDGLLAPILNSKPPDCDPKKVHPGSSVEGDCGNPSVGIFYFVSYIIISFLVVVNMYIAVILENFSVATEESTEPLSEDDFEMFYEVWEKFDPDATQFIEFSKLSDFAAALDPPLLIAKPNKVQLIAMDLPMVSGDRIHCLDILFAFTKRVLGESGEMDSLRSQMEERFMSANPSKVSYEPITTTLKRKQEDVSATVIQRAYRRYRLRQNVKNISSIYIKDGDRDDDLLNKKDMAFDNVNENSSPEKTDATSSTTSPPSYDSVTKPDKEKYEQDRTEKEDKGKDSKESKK
Protocol: as §1, §2, §3, §4, §5, §6, §7, §8

| Compound | IC50 [1] | IC50 [2] |
| --- | --- | --- |
| COc1ccc(F)c(CONC(=O)c2cncc(-c3ccc(OC4CNC4)cc3)n2)c1 [Compound 22, 6-(4-(azetidin-3-yloxy)phenyl)-N-((2-fluoro-5-methoxybenzyl)oxy)pyrazine-2-carboxamide] | > 1 µM | > 1 µM |
| CCOc1ccc(-c2cncc(C(=O)NOCc3cncc(OC)c3)n2)cc1 [Compound 8, 6-(4-ethoxyphenyl)-N-((5-methoxypyridine-3-yl)methoxy)pyrazine-2-carboxamide] | > 1 µM | > 1 µM |
| O=C(NOCc1ccccc1F)c1cncc(-c2ccc(OC(F)(F)F)nc2)n1 [Compound 71] | < 0.5 µM | < 0.5 µM |
| CCOc1ccc(-c2cnc(N)c(C(=O)NOCc3cc(OC)ccc3F)n2)cn1 [Compound 103] | 0.5 to 1 µM | > 1 µM |
| CCOc1ccc(-c2cncc(C(=O)NOCc3[nH]ccc3C#N)n2)cn1 [Compound 68] | > 1 µM | > 1 µM |
| CCOc1ccc(-c2cncc(C(=O)NOCc3cc(OC)ccc3F)n2)c(OC)c1 [Compound 87] | < 0.5 µM | > 1 µM |
| [2H]C([2H])([2H])C([2H])([2H])Oc1ccc(-c2cncc(C(=O)NOCc3cc(OC)ccc3F)n2)cn1 [Compound 48, 6-(6-(ethoxy-d5)pyridine-3-yl)-N-((2-fluoro-5-methoxybenzyl)oxy)pyrazine-2-carboxamide] | > 1 µM | > 1 µM |
| CCOc1ccc(-c2cnc(F)c(C(=O)NOCc3cc(OC)ccc3F)n2)cn1 [Compound 105] | 0.5 to 1 µM | > 1 µM |
| CCOc1ccc(-c2cccc(C(=O)NOCc3cc(OC)cnc3F)n2)cn1 [Compound 107] | > 1 µM | > 1 µM |
| COc1cnc(F)c(CONC(=O)c2cccc(-c3ccc(OC(F)F)nc3)n2)c1 [Compound 114] | 0.5 to 1 µM | > 1 µM |
| CCOc1ccc(-c2cncc(C(=O)NOCc3cc(OC)ccc3F)n2)cc1 [Compound 9, 6-(4-ethoxyphenyl)-N-((2-fluoro-5-methoxybenzyl)oxy)pyrazine-2-carboxamide] | < 0.5 µM | > 1 µM |
| CN(C)c1cnc(F)c(CONC(=O)c2cncc(-c3ccc(OC(F)F)nc3)n2)c1 [Compound 80] | 0.5 to 1 µM | > 1 µM |
| [2H]C([2H])([2H])Oc1ccc(F)c(CONC(=O)c2cncc(-c3ccc(OC(F)F)nc3)n2)c1 [Compound 83] | > 1 µM | > 1 µM |
| COc1cnc(F)c(CONC(=O)c2ccnc(-c3ccc(OC(F)F)nc3)n2)c1 [Compound 117] | > 1 µM | > 1 µM |
| COc1ccc(F)c(CONC(=O)c2cncc(-c3ccc(OC(F)F)nc3)c2)c1 [Compound 116] | < 0.5 µM | > 1 µM |
| CCOc1ccc(-c2nc(C(=O)NOCc3cc(OC)cc(OC)c3)cnc2O)cc1 [Compound 96] | < 0.5 µM | < 0.5 µM |
| COc1ccc(-c2cncc(C(=O)NOCc3cc(OC)ccc3F)n2)cc1 [Compound 2, N-((2-fluoro-5-methoxybenzyl)oxy)-6-(4-methoxyphenyl)pyrazine-2-carboxamide] | < 0.5 µM | > 1 µM |
| COc1cnc(F)c(CONC(=O)c2cncc(-c3ccc(OC(F)F)nc3)n2)c1 [Compound 78] | > 1 µM | > 1 µM |
| CCOc1ccc(-c2nc(O)cc(C(=O)NOCc3cc(OC)ccc3F)n2)cc1 [Compound 112] | < 0.5 µM | > 1 µM |
| CCOc1ccc(-c2cncc(C(=O)NOCc3cc(OC)ccc3Cl)n2)cc1 [Compound 11, N-((2-chloro-5-methoxybenzyl)oxy)-6-(4-ethoxyphenyl)pyrazine-2-carboxamide] | < 0.5 µM | 0.5 to 1 µM |
| COc1ccc(F)c(CONC(=O)c2cnc(F)c(-c3ccc(OC(F)F)nc3)n2)c1 [Compound 124] | > 1 µM | > 1 µM |
| CCOc1cc(C)c(-c2cncc(C(=O)NOCc3cc(OC)ccc3F)n2)cn1 [Compound 93] | > 1 µM | > 1 µM |
| CCOc1ccc(-c2cncc(C(=O)NOCc3cc(C)cc(C)c3)n2)cc1 [Compound 21, N-((3,5-dimethylbenzyl)oxy)-6-(4-ethoxyphenyl)pyrazine-2-carboxamide] | > 1 µM | > 1 µM |
| CCOc1ccc(-c2cncc(C(=O)NOCc3cc(OC)ncc3F)n2)cc1 [Compound 13, 6-(4-ethoxyphenyl)-N-((5-fluoro-2-methoxypyridine-4-yl)methoxy)pyrazine-2-carboxamide] | < 0.5 µM | > 1 µM |
| CCOc1ccc(-c2cncc(C(=O)NOCc3cc(OC)cnc3F)n2)cc1 [Compound 12, 6-(4-ethoxyphenyl)-N-((2-fluoro-5-methoxypyridine-3-yl)methoxy)pyrazine-2-carboxamide] | < 0.5 µM | > 1 µM |
| CCOc1ccc(-c2cncc(C(=O)NOCc3cc(OC)ccc3F)n2)c(C)n1 [Compound 92] | < 0.5 µM | > 1 µM |

Now from value to compound:

| IC50 [1] | IC50 [2] | Compound |
| --- | --- | --- |
| 0.5 to 1 µM | > 1 µM | CCOc1ccc(-c2cncc(C(=O)NOCc3ccccc3F)n2)cn1 [Compound 32, 6-(6-ethoxypyridine-3-yl)-N-((2-fluorobenzyl)oxy)pyrazine-2-carboxamide] |
| > 1 µM | > 1 µM | CCOc1ccc(-c2cncc(C(=O)NOCc3c[nH]nc3C)n2)cn1 [Compound 69, 6-(6-ethoxypyridine-3-yl)-N-((3-methyl-1H-pyrazole-4-yl)methoxy)pyrazine-2-carboxamide] |
| < 0.5 µM | > 1 µM | CCOc1ccc(-c2cncc(C(=O)NOCc3cc(OC)ncc3F)n2)cn1 [Compound 39, 6-(6-ethoxypyridine-3-yl)-N-((5-fluoro-2-methoxypyridine-4-yl)methoxy)pyrazine-2-carboxamide] |
| > 1 µM | > 1 µM | COc1ccc(F)c(CONC(=O)c2cncc(-c3ccc(OCCC4CNC4)cc3)n2)c1 [Compound 24, 6-(4-(2-(azetidine-3-yl)ethoxy)phenyl)-N-((2-fluoro-5-methoxybenzyl)oxy)pyrazine-2-carboxamide] |
| < 0.5 µM | > 1 µM | O=C(NOCc1cccnc1)c1cncc(-c2ccc(OC(F)(F)F)nc2)n1 [Compound 74] |
| < 0.5 µM | 0.5 to 1 µM | CCOc1ccc(-c2cncc(C(=O)NOCc3cccn3C)n2)cn1 [Compound 60, 6-(6-ethoxypyridine-3-yl)-N-((1-methyl-1H-pyrrole-2-yl)methoxy)pyrazine-2-carboxamide] |
| 0.5 to 1 µM | > 1 µM | COc1ccc(F)c(CONC(=O)c2cncc(-c3ccc(OC(C)C)nc3)n2)c1 [Compound 31, N-((2-fluoro-5-methoxybenzyl)oxy)-6-(6-isopropoxypyridine-3-yl)pyrazine-2-carboxamide] |
| > 1 µM | > 1 µM | COc1cc(CONC(=O)c2cncc(-c3ccc(OC(F)F)nc3)n2)c(F)cn1 [Compound 79, 6-(6-(difluoromethoxy)pyridine-3-yl)-N-((5-fluoro-2-methoxypyridine-4-yl)methoxy)pyrazine-2-carboxamide] |
| > 1 µM | > 1 µM | COc1ccc(F)c(CONC(=O)c2cncc(-c3ccc([S+](C)[O-])cc3)n2)c1 (stereo not drawn) [Compound 29, N-((2-fluoro-5-methoxybenzyl)oxy)-6-(4-(methylsulfinyl)phenyl)pyrazine-2-carboxamide] |
| > 1 µM | > 1 µM | CCOc1ccc(-c2cncc(C(=O)NOCc3ncoc3C)n2)cn1 [Compound 57, 6-(6-ethoxypyridine-3-yl)-N-((5-methyloxazole-4-yl)methoxy)pyrazine-2-carboxamide] |
| > 1 µM | > 1 µM | CCOc1ccc(-c2cncc(C(=O)NOCc3cc(OC)ccc3O)n2)cn1 [Compound 44, 6-(6-ethoxypyridine-3-yl)-N-((2-hydroxy-5-methoxybenzyl)oxy)pyrazine-2-carboxamide] |
| < 0.5 µM | 0.5 to 1 µM | [2H]C([2H])([2H])Oc1ccc(F)c(CONC(=O)c2cncc(-c3ccc(OCC)nc3)n2)c1 [Compound 55, 6-(6-ethoxypyridine-3-yl)-N-((2-fluoro-5-(methoxy-d3)benzyl)oxy)pyrazine-2-carboxamide] |
| > 1 µM | > 1 µM | CCOc1ccc(-c2cncc(C(=O)NOCc3ccccc3O)n2)cn1 [Compound 34, 6-(6-ethoxypyridine-3-yl)-N-((2-hydroxybenzyl)oxy)pyrazine-2-carboxamide] |
